The text below walks through data of the METLIN SMRT retention time set (Domingo-Almenara et al. 2019).

A short description of the data set: gradient 5% acetonitrile 3 min, to 50% in 2 min, to 85% in 15 min, held 3 min, 100 µL/min. Particulars: column: Zorbax Extend-C18 2.1 x 50 mm; eluents: water / acetonitrile, 0.1% formic acid. An outline of the steps:
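The system's dead and dwell volumes were 40 μL and 900 μL, with a Zorbax Extend-C18 column (2.1 × 50 mm, 1.8 μm) run at 100 μL/min in water and acetonitrile containing 0.1% formic acid each. Pure standards were analyzed in mixtures of ~100 molecules by HPLC–quadrupole time-of-flight mass spectrometry in positive and negative ionization mode. Retention time was assigned from computationally picked, manually inspected adduct peaks.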
Molecule `CCOc1ccc(C2Cn3nnc(-c4nc(-c5ccc(F)cc5)no4)c3CO2)cc1` (stereo unspecified) came in with an RP-LC retention time of 1130 s.
The result for `O=C(NC1CC1)C1CCN(c2cnn(Cc3ccccc3)c(=O)c2)C1` (stereo unspecified) reads 664 s; that for `CC(C)Cn1cc(CCNS(=O)(=O)c2ccc(Cl)c(Cl)c2)c2cccnc21`, 1060 s; that for `COc1ccc(-c2nnc(CC(=O)NCc3ccccn3)o2)cc1`, 588 s.
For `CSc1cccc(NC(=O)Cn2nc3n(c2=O)CCCCC3)c1` the value was 707 s; for `CCS(=O)(=O)N1CCCCC1c1nc(-c2cccnc2)n[nH]1` (stereo unspecified), 615 s; for `CCOC(=O)CNC(=O)Nc1ccc2c(c1)oc(=O)n2CC`, 659 s.
As for `O=C(NCc1ccco1)C1CCCN(S(=O)(=O)c2c[nH]c(C(=O)N3CCCCCC3)c2)C1` (stereo unspecified), the RP-LC retention time came to 771 s.
Regarding `O=C1CCCN1CCCN(CC(=O)N1CCNCC1)C(=O)c1cccc(Cl)c1`, the RP-LC retention time came out at 586 s.
The result for `O=C(C1=CN(c2ccccc2)c2ccccc2S1(=O)=O)N1CCCCC1` reads 821 s; that for `CC1CCCCN1CCCN1C(=O)c2ccccc2C1C(=O)NC1CCCCC1` (stereo unspecified), 642 s.
Turning to `Cc1ccn2cc(-c3ccc(NC(=O)c4ccc(C(C)(C)C)cc4)cc3)nc2n1`, the RP-LC retention time turned out to be 803 s.
The molecule `COc1ccc(-c2nc(Cn3ccn4nc(-c5ccc(F)cc5)cc4c3=O)c(C)o2)cc1` returned an RP-LC retention time of 670 s.
In turn, `CCn1nccc1C(=O)N1CCCN(C2=NS(=O)(=O)C(c3ccc(C)cc3)=C2C)CC1` gave an RP-LC retention time of 769 s.
The result for `Cc1cccc2sc(N(CCCN(C)C)C(=O)c3ccccc3Br)nc12` reads 629 s.
The result for `CCN(CC)CCCNc1ncnc2c1cnn2-c1ccc(C)c(C)c1` reads 663 s; that for `CCCCOc1ccccc1C1NC(=O)NC(C)=C1C(=O)OCc1ccco1` (stereo unspecified), 938 s; that for `O=C(c1cccc2ccccc12)N1CCN(c2ccc(Nc3ccncc3)nn2)CC1`, 554 s.
As to `Cn1cc(S(=O)(=O)N2CCC(C(=O)Nc3cccc(C#N)c3)CC2)cc1C(=O)N1CCCC1`, the RP-LC retention time turned out to be 751 s.
The result for `O=C(NCc1cc(F)cc(F)c1)c1ccc(-c2cccs2)nc1` reads 925 s; that for `Cc1ccc(C)c(NC(=O)CSc2nncn2C)c1`, 618 s.
Consider `CC(C)Oc1ccc(CNC(=O)C2CCN(c3nnc4ccccn34)CC2)cc1`, for which the RP-LC retention time was 685 s.
In turn, `COC(=O)c1ccc(NC(=O)N2CCN(c3nc4ccccc4nc3C(F)(F)F)CC2)cc1` came in with an RP-LC retention time of 1080 s.
The result for `Cc1cc(N2CCN(c3ccccn3)CC2)n2ncc(-c3ccccc3Cl)c2n1` reads 732 s; that for `Cc1ccc(NC(=O)NC2CCN(c3cc(C)cc(C)c3)C2=O)cc1` (stereo unspecified), 607 s.
`O=C1C(c2ccncc2)N(Cc2ccco2)C(=O)CN1c1ccccc1` (stereo unspecified) registered an RP-LC retention time of 628 s.
Consider `O=S(=O)(Nc1cccn2c(C3CCC3)nnc12)c1ccc2c(c1)CCCC2`, for which the RP-LC retention time was 933 s.
The result for `COCc1ccc(C(=O)Nc2ccnc3ccc(Cl)cc23)o1` reads 616 s.
`Cc1ccc(-c2noc(Cc3nnc(-c4cc(F)cc(F)c4)o3)n2)cc1C` displayed an RP-LC retention time of 1170 s.
The result for `O=C(CCNc1c(-c2ccc(F)cc2)nc2cnccn12)Nc1ccc2c(c1)OCO2` reads 727 s; that for `CC[C@@H](CO)Nc1nc(NCc2ccc(-c3ccccn3)cc2)c2ncn(C(C)C)c2n1`, 632 s; that for `Cc1nnc2cc(N3CCN(C(=O)Nc4ccc(Cl)cc4)CC3)cnn12`, 657 s.
`CCOC(=O)c1[nH]c(C)c(C(=O)C(C)N(C(=O)c2cccc(F)c2)C2CC2)c1C` (stereo unspecified) returned an RP-LC retention time of 988 s.
Take `O=C(NCc1cccnc1)C1CCN(c2ncnc3c2oc2ccccc23)CC1`: the RP-LC retention time was 583 s.
Molecule `CCc1cc2c(cc(C(=O)NCc3ccccc3)n2C)s1` came in with an RP-LC retention time of 1060 s.
The molecule `O=c1n(Cc2cccc(F)c2)nc2c(S(=O)(=O)N3CCN(c4ccc(F)cc4)CC3)cccn12` registered an RP-LC retention time of 967 s.
The molecule `O=S(=O)(NCc1nnnn1C1CCCCC1)c1cccs1` came in with an RP-LC retention time of 740 s.
As to `Cc1cc(NS(=O)(=O)c2cc3n(c2)CCCN(C)C3=O)ccc1F`, the RP-LC retention time amounted to 696 s.
As to `CC(C)CN1CCn2cc(S(=O)(=O)Nc3ccc(F)cc3)cc2C1=O`, the RP-LC retention time is 1020 s.
As for `Cc1cccc(-c2csc3c(=O)n(Cc4ccc(N5CCCC5=O)cc4)cnc23)c1`, the RP-LC retention time came out at 937 s.
For the molecule `O=C(NC1CCCCCC1)c1cc(NS(=O)(=O)c2ccc(Cl)cc2)cnc1N1CCNCC1`, the RP-LC retention time worked out at 698 s.
The result for `COc1cc(NC(=O)c2cccc([N+](=O)[O-])c2)c(OC)cc1Cl` reads 921 s.
For `O=C1NC2(CCN(C(=O)c3ccccc3)CC2)N=C1c1cccc(Cl)c1` the value was 869 s; for `O=C(Nc1ccccc1)N1CC(Oc2ccc(-c3nc(-c4ccccc4)no3)cc2)C1`, 1150 s.
For `CCOC(=O)CNC(=O)N(C)CCc1noc(-c2ccc(Cl)cc2)n1`, the RP-LC retention time turned out to be 789 s.
For `CN(C)c1cccc(C(=O)N2CCN(c3cc(-c4ccc(Cl)cc4)[nH]n3)CC2)c1` the value was 820 s; for `CC(=O)Oc1ccc(C2=NN(C(C)=O)C(c3ccc(F)cc3)O2)c(OC(C)=O)c1` (stereo unspecified), 936 s.
For `CCc1ccc(N2CCC(C(=O)NCCc3c[nH]c4ccc(Cl)cc34)C2=O)cc1` (stereo unspecified) the value was 1020 s; for `O=C(NCCc1c[nH]c2ccc(Cl)cc12)C1CCCN(c2nc3cccnc3s2)C1` (stereo unspecified), 858 s; for `O=C(Cn1cccc1-c1nnc(C2CCC2)o1)Nc1ccc(F)cc1`, 897 s.
For `CCc1nccn1Cc1noc(-c2ccccc2Cl)n1` the value was 564 s; for `CCOc1cccc(C2c3[nH]c4ccccc4c3CCN2C(=O)C2CCC2)c1` (stereo unspecified), 1200 s; for `CCCN(CC1CCOC1)C(=O)Nc1ccc(C)cc1C` (stereo unspecified), 811 s.
Take `CC(C)C(=O)N1CCOc2ccc(N(C)C)cc2C1`: the RP-LC retention time was found to be 575 s.
For `Cc1nc(C)c(C(=O)Nc2cccc(Cl)c2C)o1` the value was 731 s; for `CN(C)CCn1c2c(c(SCC(=O)Nc3ccc(F)c(F)c3)nc1=O)CCC2`, 638 s.
On to `Cc1ccc(-c2nc3ncccn3c2Nc2ccccc2)cc1`, for which the RP-LC retention time is 714 s.
The result for `Cn1cccc1C(=O)C(=O)N1CCN(c2ccc(F)cc2)CC1` reads 819 s; that for `CCn1cc(CCNC(=O)c2c(F)cccc2Cl)c2cccnc21`, 708 s; that for `COc1cccc(OCC2c3ccsc3CCN2C(=O)CN(CC2CCCO2)C(=O)C(C)C)c1` (stereo unspecified), 906 s.
For `Cc1ccc(CN2CCN(CC(=O)NCc3cccnc3)C(=O)C2=O)cc1` the value was 859 s.
In turn, `CCOC(=O)CNC(=O)N1CCN(Cc2nc3cc(Cl)ccc3o2)CC1` gave an RP-LC retention time of 644 s.
For `COCCN1C(=O)Cc2ccccc2C1C(=O)NCc1cc(F)ccc1F` (stereo unspecified) the value was 738 s.
In turn, `COc1ccc(-c2cc3nn(CC(=O)Nc4cc(C)ccc4C)c(=O)n3c(C)n2)cc1` displayed an RP-LC retention time of 975 s.
For `O=C1OC2CC1N(C(=O)C1CC=CCC1)C2` (stereo unspecified) the value was 622 s.
Molecule `CC(C)CN1CCN(C(=O)c2cn(-c3cc(N4CCC(C)CC4)ncn3)cn2)CC1` showed an RP-LC retention time of 663 s.
For `COc1ccc(-n2nc(N3CCCC(C(=O)NC(C)CCc4ccccc4)C3)ccc2=O)cc1` (stereo unspecified) the value was 884 s.
The result for `c1ccc(N2CCN(c3ccc4nncn4n3)CC2)nc1` reads 537 s.
The molecule `CCNC(=O)C1CC(=O)N(c2cccc(C)c2)C1` (stereo unspecified) registered an RP-LC retention time of 658 s.
For `CCOC(=O)c1ccc(N2C=C(C(=O)N3CCCC3)S(=O)(=O)c3ccc(F)cc32)cc1` the value was 845 s; for `O=C1CCN(C(=O)c2ccco2)CCCCCCN1`, 633 s.
For `COc1ccc(S(=O)(=O)CCc2noc(C(=O)N3CCC4(CC3)OCCO4)n2)cc1`, the RP-LC retention time turned out to be 763 s.
Molecule `Cc1cc(C)cc(NC(=O)CN2C(=O)C(C)(C)c3ccccc32)c1` came in with an RP-LC retention time of 968 s.
For `COc1ccc2c(c1)C1(CCN(C(=O)CC(C)C)C1)C(=O)N2C` (stereo unspecified) the value was 722 s.
For `CCOc1ccc(CNS(=O)(=O)c2ccc3c(c2)CCCC(=O)N3)cc1` the value was 744 s; for `CCc1cccc(NC(=O)N2CCCC2c2nc(-c3ccccc3OC)no2)c1` (stereo unspecified), 970 s.
The result for `Cn1nc(CNC(=O)C2(c3ccccc3)CC2)c2c1CCN(S(C)(=O)=O)C2` reads 694 s; that for `CN(C)c1ccc(CNC(=O)C2CCN(Cc3cn(C)c4ccc(Cl)cc34)CC2)cc1`, 584 s.
Turning to `CN1C(=O)c2cccn2CC1C(=O)NCc1nc2ccccc2n1C` (stereo unspecified), the RP-LC retention time came to 566 s.
In the case of `Cc1nn(C(C)C(=O)NC2CCCCC2)c(=O)c2c(C)n(-c3ccccc3)nc12` (stereo unspecified), the RP-LC retention time turned out to be 946 s.
The result for `O=C(c1cc(-c2cccc(F)c2)ns1)N1CCCC1` reads 924 s.
